Measurements as given in ChEMBL document CHEMBL5113486, “Hit-to-lead optimization of novel phenyl imidazole carboxamides that are active against Leishmania donovani” (Eur J Med Chem, 2022).

What was measured:
Leishmania donovani [1] = assay: Antileishmanial activity against Leishmania donovani infected in human THP-1 cells assessed as growth inhibition by intramacrophage assay; type: functional, organism-based
[2] = Selectivity index, ratio of CC50 for cytotoxicity against human THP-1 cells to IC50 for antileishmanial activity against Leishmania donovani infected in human THP-1 cells; type: toxicity, cell-based; details: read-out: Ratio CC50/IC50
[3] = Cytotoxicity against human THP-1 cells assessed as cell growth inhibition; type: toxicity, cell-based
[4] = Cytotoxicity against human HepG2 cells assessed as cell growth inhibition at 100 uM; type: toxicity, cell-based; details: read-out: Activity
Leishmania donovani [5] = assay: Antileishmanial activity against Leishmania donovani infected in human THP-1 cells assessed as growth inhibition at 100 uM by intramacrophage assay; type: functional; parameters: scale not given: the % may be the effect or the level left

## CCCCn1c(-c2ccc(OC)cc2)cnc1NC(=O)c1ccc(F)cc1
Leishmania donovani [1]
  IC50: > 100 µM
[2]
  selectivity ratio: > 5.6
[3]
  CC50: > 100 µM
[4]
  inhibition at 100 µM: < 50%
Leishmania donovani [5]
  Activity: <50%

## COc1ccc(-c2cnc(NC(=O)C3CCNCC3)n2C)cc1
Leishmania donovani [1]
  IC50: > 100 µM
[2]
  selectivity ratio: > 1
[3]
  CC50: > 100 µM
[4]
  inhibition at 100 µM: < 50%
Leishmania donovani [5]
  Activity: <50%

## COc1ccc(-c2cnc(NC(=O)c3cnco3)n2C)cc1
Leishmania donovani [1]
  IC50: > 100 µM
[2]
  selectivity ratio: > 1
[3]
  CC50: > 100 µM
[4]
  inhibition at 100 µM: < 50%
Leishmania donovani [5]
  Activity: <50%

## CCCC(=O)Nc1ncc(-c2ccc(OC)cc2)n1C
Leishmania donovani [1]
  IC50: > 100 µM
[2]
  selectivity ratio: > 1
[3]
  CC50: > 100 µM
[4]
  inhibition at 100 µM: < 50%
Leishmania donovani [5]
  Activity: <50%

## COc1ccc(-c2cnc(NC(=O)c3ccn[nH]3)n2C)cc1
Leishmania donovani [1]
  IC50: > 100 µM
[2]
  selectivity ratio: > 1
[3]
  CC50: > 100 µM
[4]
  inhibition at 100 µM: < 50%
Leishmania donovani [5]
  Activity: <50%

## Cn1c(-c2ccccc2F)cnc1NC(=O)c1ccc(F)cc1
Leishmania donovani [1]
  IC50: > 100 µM
[2]
  selectivity ratio: > 1
[3]
  CC50: > 100 µM
[4]
  inhibition at 100 µM: < 50%
Leishmania donovani [5]
  Activity: <50%

## Cn1c(-c2ccc(F)cc2)cnc1NC(=O)c1ccc(F)cc1
Leishmania donovani [1]
  IC50: > 100 µM
[2]
  selectivity ratio: > 1
[3]
  CC50: > 100 µM
[4]
  inhibition at 100 µM: < 50%
Leishmania donovani [5]
  Activity: <50%

## COc1ccc(-c2cnc(NC(C)=O)n2C)cc1
Leishmania donovani [1]
  IC50: > 100 µM
[2]
  selectivity ratio: > 1
[3]
  CC50: > 100 µM
[4]
  inhibition at 100 µM: < 50%
Leishmania donovani [5]
  Activity: <50%

## Cn1c(-c2ccccc2)cnc1NC(=O)C1CCCCC1
Leishmania donovani [1]
  IC50: 46 µM
[2]
  selectivity ratio: > 2.2
[3]
  CC50: > 100 µM
[4]
  inhibition at 100 µM: < 50%

## COc1ccc(-c2noc(NC(=O)c3ccc(F)cc3)c2C)cc1
Leishmania donovani [1]
  IC50: > 100 µM
[2]
  selectivity ratio: > 1
[3]
  CC50: > 100 µM
[4]
  inhibition at 100 µM: < 50%
Leishmania donovani [5]
  Activity: <50%

## COc1ccc(-c2cnc(NC(=O)c3cccc(F)c3)n2C)cc1
Leishmania donovani [1]
  IC50: > 100 µM
[3]
  CC50: > 100 µM
[4]
  inhibition at 100 µM: < 50%
Leishmania donovani [5]
  Activity: <50%

## Cc1cccc(-c2cnc(NC(=O)c3ccc(F)cc3)n2C)c1
Leishmania donovani [1]
  IC50: 79 µM
[2]
  selectivity ratio: > 1.3
[3]
  CC50: > 100 µM
[4]
  inhibition at 100 µM: < 50%

## COc1ccc(-c2cnc(NC(=O)c3ccc([N+](=O)[O-])cc3)n2C)cc1
Leishmania donovani [1]
  IC50: > 100 µM
[2]
  selectivity ratio: > 1
[3]
  CC50: > 100 µM
[4]
  inhibition at 100 µM: < 50%
Leishmania donovani [5]
  Activity: <50%

## COc1ccc(-c2cnc(NC(=O)c3ccccc3C)n2C)cc1
Leishmania donovani [1]
  IC50: 65 µM
[2]
  selectivity ratio: > 1.5
[3]
  CC50: > 100 µM
[4]
  inhibition at 100 µM: < 50%

## COc1ccc(-c2cnc(NC(=O)c3ccc(Br)cc3)n2C)cc1
Leishmania donovani [1]
  IC50: > 100 µM
[2]
  selectivity ratio: > 1
[3]
  CC50: > 100 µM
[4]
  inhibition at 100 µM: < 50%

## COc1ccc(-c2cnc(NC(=O)Cc3ccccc3)n2C)cc1
Leishmania donovani [1]
  IC50: 25 µM
[2]
  selectivity ratio: > 4
[3]
  CC50: > 100 µM
[4]
  inhibition at 100 µM: < 50%

## COc1cccc(-c2cnc(NC(=O)c3ncc[nH]3)n2C)c1
Leishmania donovani [1]
  IC50: 8.1 µM
[2]
  selectivity ratio: > 12
[3]
  CC50: > 100 µM
[4]
  inhibition at 100 µM: < 50%

## Cc1ccccc1C(=O)Nc1ncc(-c2ccccc2)n1C
Leishmania donovani [1]
  IC50: 57 µM
[2]
  selectivity ratio: > 1.8
[3]
  CC50: > 100 µM
[4]
  inhibition at 100 µM: < 50%

## COc1ccc(-c2cnc(NC(=O)c3ccccc3C#N)n2C)cc1
Leishmania donovani [1]
  IC50: 14 µM
[2]
  selectivity ratio: > 7.1
[3]
  CC50: > 100 µM
[4]
  inhibition at 100 µM: < 50%

## COc1ccc(-c2cnc(NC(=O)c3ccc(F)cc3)n2C2CCCC2)cc1
Leishmania donovani [1]
  IC50: 35 µM
[2]
  selectivity ratio: > 1
[3]
  CC50: > 100 µM
[4]
  inhibition at 100 µM: < 50%

## CCn1c(-c2ccc(OC)cc2)cnc1NC(=O)c1ccc(F)cc1
Leishmania donovani [1]
  IC50: > 100 µM
[2]
  selectivity ratio: > 2.6
[3]
  CC50: > 100 µM
[4]
  inhibition at 100 µM: < 50%

## COc1ccc(-c2cnc(NC(=O)c3cccc(Br)c3)n2C)cc1
Leishmania donovani [1]
  IC50: > 100 µM
[2]
  selectivity ratio: > 1
[3]
  CC50: > 100 µM
[4]
  inhibition at 100 µM: < 50%
